Results taken from patent publication US12570695B2, “Bicyclic peptide ligands specific for EphA2” (priority 2019, dated 2026).
Starred links: 1 amine or outer side, 2 acyl side, 3 side chain; linkers in the order of their positions; H or OH if unused. Positions of bridges follow the written chain, without caps; N, C: chain ends. Non-standard residues stand in square brackets, D forms with d. Residues, ends and D or L forms follow the SMILES beside them. TATA = O=C(CC[*:1])N1CN(C(=O)CC[*:2])CN(C(=O)CC[*:3])C1; Hyp = O=C(O)[C@@H]1C[C@@H](O)CN1; hArg = N=C(N)NCCCC[C@H](N)C(=O)O; 2Thi = N[C@@H](Cc1cccs1)C(=O)O; 3Thi = N[C@@H](Cc1ccsc1)C(=O)O

Molecular target: human EphA2 (Homo sapiens, UniProt P29317)
Sequence (P29317 24-976): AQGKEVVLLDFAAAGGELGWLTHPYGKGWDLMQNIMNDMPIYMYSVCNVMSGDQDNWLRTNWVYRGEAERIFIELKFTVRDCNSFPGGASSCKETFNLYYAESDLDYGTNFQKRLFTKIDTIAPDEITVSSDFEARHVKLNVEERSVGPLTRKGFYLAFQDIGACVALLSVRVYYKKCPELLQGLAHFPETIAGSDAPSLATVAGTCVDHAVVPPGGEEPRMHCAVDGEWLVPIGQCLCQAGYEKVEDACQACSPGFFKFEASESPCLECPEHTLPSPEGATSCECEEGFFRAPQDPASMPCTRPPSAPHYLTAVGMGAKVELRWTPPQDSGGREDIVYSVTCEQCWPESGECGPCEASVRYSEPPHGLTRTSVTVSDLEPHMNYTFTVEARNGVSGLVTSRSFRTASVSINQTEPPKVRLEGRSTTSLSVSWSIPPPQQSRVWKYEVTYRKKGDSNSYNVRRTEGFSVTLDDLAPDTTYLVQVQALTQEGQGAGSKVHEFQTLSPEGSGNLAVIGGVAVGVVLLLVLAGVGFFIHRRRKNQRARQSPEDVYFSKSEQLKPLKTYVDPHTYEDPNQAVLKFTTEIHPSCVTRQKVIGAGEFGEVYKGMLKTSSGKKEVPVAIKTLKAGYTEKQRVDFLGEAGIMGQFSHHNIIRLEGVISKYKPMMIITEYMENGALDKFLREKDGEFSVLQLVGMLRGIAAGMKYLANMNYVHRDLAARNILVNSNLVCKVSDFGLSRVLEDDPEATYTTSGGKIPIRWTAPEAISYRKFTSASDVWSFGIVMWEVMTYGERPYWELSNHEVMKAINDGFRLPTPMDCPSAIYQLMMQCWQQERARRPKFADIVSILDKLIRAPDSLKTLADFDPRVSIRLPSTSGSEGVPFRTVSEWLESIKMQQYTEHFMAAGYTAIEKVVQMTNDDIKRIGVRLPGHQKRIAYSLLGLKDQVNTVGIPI
Test: biochemical
Experimental: Peptides without a fluorescent tag were tested in competition with a peptide with a fluorescent tag and a known Kd.
Peptides were diluted to an appropriate concentration in assay buffer as described in the direct binding assay with a maximum of 5% DMSO, then serially diluted 1 in 2. […] Measurements were conducted, however the gain was determined prior to the first measurement. Data analysis was in Systat Sigmaplot version 12.0 where the mP values were fit to a user defined cubic equation to generate a Ki value:
“Lig”, “KLig” and “Prot” were all defined values relating to: fluorescent peptide concentration, the Kd of the fluorescent peptide and EphA2 concentration respectively.

Row | SMILES | Ki [nM]
1 | CC(C)C[C@@H]1NC(=O)[C@@H]2CSCCC(=O)N3CN(CN(C3)C(=O)CCSC[C@H](NC(=O)[C@H](CC(=O)O)NC(=O)[C@H](CCCCNC(=N)N)NC(=O)[C@H](C)N)C(=O)N3C[C@H](O)C[C@H]3C(=O)N[C@@H](CC(C)C)C(=O)N[C@@H](C(C)C)C(=O)N[C@@H](CC(N)=O)C(=O)N3CCC[C@H]3C(=O)N[C@@H](CC(C)C)C(=O)N2)C(=O)CCSC[C@@H](C(N)=O)NC(=O)[C@H](CCCCNC(=N)N)NC(=O)[C@H](Cc2c[nH]c3ccccc23)NC(=O)[C@@H](CC(=O)O)NC(=O)[C@@H]2CCCN2C(=O)[C@H](Cc2cccs2)NC1=O [BCY13922, A[HArg]DCi[HyP]LVNPLCiiL[Thi]P[dD]W[HArg]Ciii] (H-A[hArg]DC[Hyp]LVNPLCL[2Thi]P[dD]W[hArg]C-NH2; linker 4-11-18 via TATA; N-terminus and C-terminus assumed) | 1.14
2 | CC(C)C[C@@H]1NC(=O)[C@@H]2CSCCC(=O)N3CN(CN(C3)C(=O)CCSC[C@H](NC(=O)[C@H](CC(=O)O)NC(=O)[C@H](CCCCNC(=N)N)NC(=O)[C@H](C)N)C(=O)N3C[C@H](O)C[C@H]3C(=O)N[C@@H](CC(C)C)C(=O)N[C@@H](C(C)C)C(=O)N[C@@H](CC(N)=O)C(=O)N3CCC[C@H]3C(=O)N[C@@H](CC(C)C)C(=O)N2)C(=O)CCSC[C@@H](C(N)=O)NC(=O)[C@H](CCCCNC(=N)N)NC(=O)[C@H](Cc2c[nH]c3ccccc23)NC(=O)[C@@H](CC(=O)O)NC(=O)[C@@H]2CCCN2C(=O)[C@H](Cc2ccsc2)NC1=O [BCY13923, A[HArg]DCi[HyP]LVNPLCiiL[3Thi]P[dD]W[HArg]Ciii] (H-A[hArg]DC[Hyp]LVNPLCL[3Thi]P[dD]W[hArg]C-NH2; linker 4-11-18 via TATA; N-terminus and C-terminus assumed) | 1.32
3 | CC(C)C[C@@H]1NC(=O)[C@@H]2CSCCC(=O)N3CN(CN(C3)C(=O)CCSC[C@H](NC(=O)[C@H](CC(=O)O)NC(=O)[C@H](CCCCNC(=N)N)NC(=O)[C@H](C)N)C(=O)N3C[C@H](O)C[C@H]3C(=O)N[C@@H](CC(C)C)C(=O)N[C@@H](C(C)C)C(=O)N[C@@H](CC(N)=O)C(=O)N3CCC[C@H]3C(=O)N[C@@H](CC(C)C)C(=O)N2)C(=O)CCSC[C@@H](C(N)=O)NC(=O)[C@H](CCCCNC(=N)N)NC(=O)[C@H](Cc2c[nH]c3ccccc23)NC(=O)[C@@H](CC(=O)O)NC(=O)[C@@H]2CCCN2C(=O)[C@H](CC(N)=O)NC1=O [BCY14047, A[HArg]DCi[HyP]LVNPLCiiLNP[dD]W[HArg]Ciii] (H-A[hArg]DC[Hyp]LVNPLCLNP[dD]W[hArg]C-NH2; linker 4-11-18 via TATA; N-terminus and C-terminus assumed) | 3.88
4 | CC(C)C[C@@H]1NC(=O)[C@@H]2CSCCC(=O)N3CN(CN(C3)C(=O)CCSC[C@H](NC(=O)[C@H](CC(=O)O)NC(=O)[C@H](CCCCNC(=N)N)NC(=O)[C@H](C)N)C(=O)N3C[C@H](O)C[C@H]3C(=O)N[C@@H](CC(C)C)C(=O)N[C@@H](C(C)C)C(=O)N[C@@H](CC(N)=O)C(=O)N3CCC[C@H]3C(=O)N[C@@H](CC(C)C)C(=O)N2)C(=O)CCSC[C@@H](C(N)=O)NC(=O)[C@H](CCCCNC(=N)N)NC(=O)[C@H](Cc2c[nH]c3ccccc23)NC(=O)[C@@H](CC(=O)O)NC(=O)[C@@H]2CCCN2C(=O)[C@H](CCC(N)=O)NC1=O [BCY14048, A[HArg]DCi[HyP]LVNPLCiiLQP[dD]W[HArg]Ciii] (H-A[hArg]DC[Hyp]LVNPLCLQP[dD]W[hArg]C-NH2; linker 4-11-18 via TATA; N-terminus and C-terminus assumed) | 4.1
